Test results: paper PMC6760264 (Journal of medicinal chemistry, 2019)

Molecular target: T1, NTMT1 (Homo sapiens, UniProt Q9BV86)
T1 sequence (Q9BV86 1-223): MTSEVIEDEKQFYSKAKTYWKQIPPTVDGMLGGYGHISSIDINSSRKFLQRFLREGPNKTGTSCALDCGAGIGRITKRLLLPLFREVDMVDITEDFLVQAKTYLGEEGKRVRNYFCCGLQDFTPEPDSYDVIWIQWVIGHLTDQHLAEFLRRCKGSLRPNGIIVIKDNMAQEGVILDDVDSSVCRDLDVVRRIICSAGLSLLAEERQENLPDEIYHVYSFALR
Assay: SAHH-coupled fluorescence assay of NTMT1 inhibition
Format: biochemical
Details: at 10 μM

`Nc1ncnc2c1ncn2[C@@H]1O[C@H](CN(CCCN2CCC[C@H]2C(=O)O)CC[C@H](N)C(=O)O)[C@@H](O)[C@H]1O` [Compound 14, (3-(((S)-3-Amino-3-carboxypropyl)(((2R,3S,4R,5S)-5-(6-amino-9H-purin-9-yl)-3,4-dihydroxytetrahydrofuran-2-yl)-methyl)amino)propyl)-l-proline] was tested, and the “inhibition against NTMT1” value was “did not show any significant inhibition”.
